In ChEMBL document CHEMBL6182898, “Design, synthesis and bioevaluation of novel hydrazide derivatives as enhancers of immunotherapy and DNA-damage response in antitumor therapy” (Eur J Med Chem, 2025):
Activity calls are given as the source filed them. No cut-off for these calls is given here.

Legend:
B16-F10 [1] = test: Induction of antitumor immunity in mouse B16-F10 cells implanted in male C57BL/6J mouse assessed as CD3+CD8+ T cell infiltration at 50 mg/kg, IG treated for 14 days consecutively by flow cytometry (reference value: 10 %); assay type: functional; details: time 14 day
[2] = AUC (0 to t) in male Sprague-Dawley rat at 20 mg/kg, po measured for 0.083 to 12 hrs by LC-MS/MS analysis; assay type: ADME, organism-based; details: in vivo, time 0.083-12 hrs
4T1 [3] = test: Induction of DNA damage in mouse 4T1 cells assessed as decrease in PARP1 level at 5 uM by immunofluorescence based analysis; assay type: functional, cell-based
4T1 [4] = test: Antitumor activity against mouse 4T1 cells implanted in mouse at 50 mg/kg/day relative to control; assay type: functional; details: read-out: TGI
4T1 [5] = test: Synergistic induction of DNA damage in mouse 4T1 cells assessed as increase in gamma-H2AX level at 1 uM incubated for 24 hrs in presence of Olaparib by Western blot analysis; assay type: functional, cell-based
[6] = MRT (0 to infinity) in male Sprague-Dawley rat at 2 mg/kg, iv measured for 0.083 to 12 hrs by LC-MS/MS analysis; assay type: ADME, organism-based; details: in vivo, time 0.083-12 hrs
B16-F10 [7] = test: Antitumor activity against mouse B16-F10 cells implanted in male C57BL/6J mouse at 25 mg/kg, IG treated for 14 days consecutively in presence of NP-19 relative to control; assay type: functional; details: B16-F10, po, 336 h, time 14 day, read-out: TGI
B16-F10 [8] = test: Induction of antitumor immunity in mouse B16-F10 cells implanted in male C57BL/6J mouse assessed as CD3+CD8+ T cell infiltration at 25 mg/kg, IG treated for 14 days consecutively in presence of NP-19 by flow cytometry (reference value: 10 %); assay type: functional; details: time 14 day
4T1 [9] = test: Induction of DNA damage in mouse 4T1 cells implanted in mouse assessed as increase in gamma-H2AX level at 50 mg/kg/day by Western blot analysis; assay type: functional, organism-based
[10] = MRT (0 to t) in male Sprague-Dawley rat at 20 mg/kg, po measured for 0.083 to 12 hrs by LC-MS/MS analysis; assay type: ADME, organism-based; details: in vivo, time 0.083-12 hrs
4T1 [11] = test: Induction of DNA damage in mouse 4T1 cells assessed as increase in gamma-H2AX level at 5 uM by immunofluorescence based analysis; assay type: functional, cell-based
[12] = VRT (0 to infinity) in male Sprague-Dawley rat at 20 mg/kg, po measured for 0.083 to 12 hrs by LC-MS/MS analysis; assay type: ADME, organism-based; details: in vivo, time 0.083-12 hrs
[13] = AUMC (0 to infinity) in male Sprague-Dawley rat at 2 mg/kg, iv measured for 0.083 to 12 hrs by LC-MS/MS analysis; assay type: ADME, organism-based; details: in vivo, time 0.083-12 hrs
[14] = MRT (0 to infinity) in male Sprague-Dawley rat at 20 mg/kg, po measured for 0.083 to 12 hrs by LC-MS/MS analysis; assay type: ADME, organism-based; details: in vivo, time 0.083-12 hrs
[15] = Toxicity in male C57BL/6J mouse implanted with mouse B16-F10 cells assessed as body weight change at 25 mg/kg, IG treated for 14 days consecutively in presence of NP-19; assay type: organism-based; details: in vivo, po, 336 h, time 14 day
[16] = target: Programmed cell death 1 ligand 1 (Mus musculus) (UniProt Q9EP73); test: Induction of PD-L1 degradation in mouse B16-F10 cells assessed as increase in CTSB level at 0.313 to 10 uM incubated for 24 hrs by Western blot analysis; assay type: cell-based; details: dose 0.313-10 µM
4T1 [17] = test: Induction of DNA damage in mouse 4T1 cells assessed as increase in gamma-H2AX level at 2 uM incubated for 24 hrs by Western blot analysis; assay type: functional, cell-based
[18] = Toxicity in male C57BL/6J mouse implanted with mouse B16-F10 cells assessed as histopathological damage in liver at 25 mg/kg, IG treated for 14 days consecutively in presence of NP-19 by H and E staining based analysis; assay type: organism-based; details: in vivo, po, 336 h, time 14 day
[19] = target: T1, Histone deacetylase 3 (Mus musculus) (UniProt O88895); test: In vivo inhibition of HDAC3 in mouse B16-F10 cells implanted in male C57BL/6J mouse assessed as increase in Ac-H3 level at 50 mg/kg, IG treated for 14 days consecutively by immunofluorescence based analysis; assay type: functional, organism-based; details: time 14.0 day
T1 sequence (whole entry): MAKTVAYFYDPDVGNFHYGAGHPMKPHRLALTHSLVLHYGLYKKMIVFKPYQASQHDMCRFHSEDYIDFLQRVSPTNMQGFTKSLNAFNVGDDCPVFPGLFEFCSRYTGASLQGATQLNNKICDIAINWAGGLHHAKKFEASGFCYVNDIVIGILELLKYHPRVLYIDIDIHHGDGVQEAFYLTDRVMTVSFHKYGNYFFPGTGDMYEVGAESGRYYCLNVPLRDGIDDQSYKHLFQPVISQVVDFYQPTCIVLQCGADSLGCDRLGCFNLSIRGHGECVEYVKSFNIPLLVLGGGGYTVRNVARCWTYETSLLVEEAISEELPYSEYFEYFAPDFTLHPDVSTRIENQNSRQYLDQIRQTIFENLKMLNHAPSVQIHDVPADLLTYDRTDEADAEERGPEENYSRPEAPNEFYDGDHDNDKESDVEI

[20] = Toxicity in male C57BL/6J mouse implanted with mouse B16-F10 cells assessed as histopathological damage in kidney at 50 mg/kg, IG treated for 14 days consecutively by H and E staining based analysis; assay type: organism-based; details: in vivo, po, 336 h, time 14 day
[21] = VRT (0 to t) in male Sprague-Dawley rat at 2 mg/kg, iv measured for 0.083 to 12 hrs by LC-MS/MS analysis; assay type: ADME, organism-based; details: in vivo, time 0.083-12 hrs
[22] = target: T1, Histone deacetylase 3 (Mus musculus); test: In vivo inhibition of HDAC3 in mouse B16-F10 cells implanted in male C57BL/6J mouse assessed as decrease in PD-L1 level at 50 mg/kg, IG treated for 14 days consecutively by Western blot analysis; assay type: functional, organism-based; details: time 14.0 day
[23] = Clearance in male Sprague-Dawley rat at 2 mg/kg, iv measured for 0.083 to 12 hrs by LC-MS/MS analysis; assay type: ADME, organism-based; details: in vivo, time 0.083-12 hrs
4T1 [24] = test: Induction of DNA damage in mouse 4T1 cells assessed as decrease in PARP1 level at 2 uM incubated for 24 hrs by Western blot analysis; assay type: functional, cell-based
[25] = target: Programmed cell death 1 ligand 1 (Mus musculus) (UniProt Q9EP73); test: Induction of PD-L1 degradation in mouse B16-F10 cells at 2 uM incubated for 24 hrs in presence of CA-074 by Western blot analysis; assay type: cell-based
4T1 [26] = test: Synergistic induction of DNA damage in mouse 4T1 cells implanted in mouse assessed as increase in gamma-H2AX level at 25 mg/kg/day in presence of olaparib by Western blot analysis; assay type: functional, organism-based
[27] = Clast in male Sprague-Dawley rat at 20 mg/kg, po measured for 0.083 to 12 hrs by LC-MS/MS analysis; assay type: ADME, organism-based; details: in vivo, time 0.083-12 hrs
[28] = AUC (0 to infinity) in male Sprague-Dawley rat at 20 mg/kg, po measured for 0.083 to 12 hrs by LC-MS/MS analysis; assay type: ADME, organism-based; details: in vivo, time 0.083-12 hrs
[29] = AUMC (0 to t) in male Sprague-Dawley rat at 20 mg/kg, po measured for 0.083 to 12 hrs by LC-MS/MS analysis; assay type: ADME, organism-based; details: in vivo, time 0.083-12 hrs

Sequence of Programmed cell death 1 ligand 1 (Mus musculus) (Q9EP73 whole entry): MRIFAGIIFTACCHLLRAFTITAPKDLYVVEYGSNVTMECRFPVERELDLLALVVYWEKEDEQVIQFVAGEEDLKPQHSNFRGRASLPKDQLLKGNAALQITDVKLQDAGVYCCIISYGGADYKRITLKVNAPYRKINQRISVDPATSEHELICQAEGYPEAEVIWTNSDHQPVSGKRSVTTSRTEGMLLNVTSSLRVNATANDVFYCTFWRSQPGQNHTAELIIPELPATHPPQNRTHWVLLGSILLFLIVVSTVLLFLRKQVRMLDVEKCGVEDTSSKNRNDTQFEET

CCCNNC(=O)CCCCCCNC(=O)c1cnc(-c2ccc(NC(=O)OC(C)(C)C)cc2)s1
Activity (B16-F10 [1]): 22% | AUC(0-t) [2]: 30.8 ng·h/mL | Activity (4T1 [3]): Active | inhibition in vivo at 50 mg/kg/day (4T1 [4]): 64% | Activity (4T1 [5]): Active | MRT inf [6]: 0.37 h | inhibition in vivo at 25 mg/kg (B16-F10 [7]): 65% | Activity (B16-F10 [8]): 38% | Activity (4T1 [9]): Active | MRT last [10]: 2.57 h | Activity (4T1 [11]): Active | VRT [12]: 14.7 h² | AUMC [13]: 238.68 hr.hr.ug/L | MRT inf [14]: 3.13 h | Activity [15]: Non-toxic | Activity [16]: Active | Activity (4T1 [17]): Active | Activity [18]: Non-toxic | inhibition [19]: Active | Activity [20]: Non-toxic | VRT(t) [21]: 0.55 h² | inhibition [22]: Active | clearance [23]: 53.8 mL/min/kg | Activity (4T1 [24]): Active | Activity [25]: inactive | Activity (4T1 [26]): Active | Clast [27]: 0.27 ng/mL | AUC(0-inf) [28]: 32.1 ng·h/mL | AUMCt [29]: 77.04 hr.hr.ug/L
